According to ChEMBL document CHEMBL2177063, “Iridoid glucosides from Nyctanthes arbortristis result in increased reactive oxygen species and cellular redox homeostasis imbalance in Leishmania parasite” (Eur J Med Chem, 2012):
Calls of active or inactive are those of the source. The calls are words filed in the database; no cut-off is given here.

Assays:
Leishmania donovani [1] = assay: Induction of apoptosis in promastigote form of Leishmania donovani DD8 assessed as viable cells at 20 uM after 24 hrs by FITC-annexinV/PI-based flow cytometric analysis (reference value: 92.68%); format: functional
Leishmania donovani [2] = assay: Induction of apoptosis in promastigote form of Leishmania donovani DD8 assessed as early apoptotic cells at 20 uM after 24 hrs by FITC-annexinV/PI-based flow cytometric analysis (reference value: 2.61%); format: functional
[3] = molecular target: Trypanothione reductase (Leishmania donovani) (UniProt P39050); assay: Inhibition of Leishmania donovani DD8 promastigote form trypanothione reductase assessed as decrease in reduced thiol level at 100 uM after 12 hrs by DTNB-based spectrophotometric analysis relative to control
Leishmania donovani [4] = assay: Antileishmanial activity against axenic form of Leishmania donovani DD8 after 48 hrs by MTT assay; format: functional, organism-based; settings: DD8, 48 h
Leishmania donovani [5] = assay: Induction of oxidative stress in promastigote form of Leishmania donovani DD8 assessed as increase in ROS level at 20 uM by CM-H2DCFDA-based flow cytometric analysis; format: functional, organism-based
[6] = molecular target: Trypanothione reductase (Leishmania donovani) (UniProt P39050); assay: Inhibition of Leishmania donovani DD8 promastigote form trypanothione reductase assessed as decrease in reduced thiol level at 3.125 uM after 12 hrs by DTNB-based spectrophotometric analysis relative to control
[7] = molecular target: Trypanothione reductase (Leishmania donovani) (UniProt P39050); assay: Inhibition of Leishmania donovani DD8 promastigote form trypanothione reductase assessed as decrease in reduced thiol level at 100 uM after 48 hrs by DTNB-based spectrophotometric analysis relative to control
J774.A1 = assay: Cytotoxicity against mouse J774A1 cells at 1 to 100 uM after 48 hrs by MTT assay; format: cell-based; settings: j774.a1, 48 h
Leishmania donovani [8] = assay: Antileishmanial activity against promastigote form of Leishmania donovani DD8 after 48 hrs by MTT assay; format: functional, organism-based; settings: DD8, 48 h
Leishmania donovani [9] = assay: Antileishmanial activity against promastigote form of Leishmania donovani DD8 assessed as cell death at 200 uM from 12 to 48 hrs by ethidium bormide/acridine orange staining-based fluorescence microscopic analysis; format: functional, organism-based
Leishmania donovani [10] = assay: Induction of apoptosis in promastigote form of Leishmania donovani DD8 assessed as late apoptotic cells at 20 uM after 24 hrs by FITC-annexinV/PI-based flow cytometric analysis (reference value: 3.4%); format: functional
Leishmania donovani [11] = assay: Induction of oxidative stress in promastigote form of Leishmania donovani DD8 assessed as change in cell surface topology at 20 uM by CM-H2DCFDA-based flow cytometric analysis; format: functional, organism-based
[12] = Cytotoxicity against human HEK293 cells assessed as cell viability at 4 uM after 48 hrs by MTT assay relative to control; format: cell-based; settings: read-out: Activity
Leishmania donovani [13] = assay: Induction of oxidative stress in axenic form of Leishmania donovani DD8 assessed as increase in ROS level at 20 uM by CM-H2DCFDA-based flow cytometric analysis; format: functional, organism-based
[14] = molecular target: Trypanothione reductase (Leishmania donovani) (UniProt P39050); assay: Inhibition of Leishmania donovani DD8 axenic form trypanothione reductase assessed as decrease in reduced thiol level at 100 uM after 12 hrs by DTNB-based spectrophotometric analysis relative to control
Leishmania donovani [15] = assay: Antileishmanial activity against amastigote form of Leishmania donovani DD8 infected in mouse J774A1 cells at 100 uM after 48 hrs by ethidium bromide/acridine orange staining-based fluorescence microscopic analysis; format: functional, organism-based; settings: J774.A1
Leishmania donovani [16] = assay: Induction of oxidative stress in axenic form of Leishmania donovani DD8 assessed as change in cell surface topology at 20 uM by CM-H2DCFDA-based flow cytometric analysis; format: functional, organism-based
[17] = molecular target: Trypanothione reductase (Leishmania donovani) (UniProt P39050); assay: Inhibition of Leishmania donovani DD8 axenic form trypanothione reductase assessed as decrease in reduced thiol level at 3.125 uM after 12 hrs by DTNB-based spectrophotometric analysis relative to control
[18] = molecular target: Trypanothione reductase (Leishmania donovani) (UniProt P39050); assay: Inhibition of Leishmania donovani DD8 axenic form trypanothione reductase assessed as decrease in reduced thiol level at 3.125 uM after 48 hrs by DTNB-based spectrophotometric analysis relative to control
Leishmania donovani [19] = assay: Induction of necrosis in promastigote form of Leishmania donovani DD8 assessed as necrotic cells at 20 uM after 24 hrs by FITC-annexinV/PI-based flow cytometric analysis (reference value: 1.31%); format: functional
Leishmania donovani [20] = assay: Induction of oxidative stress in amastigote form of Leishmania donovani DD8 assessed as increase in ROS level at 5 to 20 uM up to 48 hrs by CM-H2DCFDA-based fluorimetric analysis; format: functional, organism-based
[21] = Cytotoxicity against human HEK293 cells assessed as cell viability at 100 uM after 48 hrs by MTT assay relative to control; format: cell-based; settings: read-out: Activity
[22] = molecular target: Trypanothione reductase (Leishmania donovani) (UniProt P39050); assay: Inhibition of Leishmania donovani DD8 promastigote form trypanothione reductase assessed as decrease in reduced thiol level at 3.125 uM after 48 hrs by DTNB-based spectrophotometric analysis relative to control
Leishmania donovani [23] = assay: Induction of oxidative stress in promastigote form of Leishmania donovani DD8 assessed as increase in ROS level at 5 to 20 uM up to 48 hrs by CM-H2DCFDA-based fluorimetric analysis; format: functional, organism-based
[24] = molecular target: Trypanothione reductase (Leishmania donovani) (UniProt P39050); assay: Inhibition of Leishmania donovani DD8 axenic form trypanothione reductase assessed as decrease in reduced thiol level at 100 uM after 48 hrs by DTNB-based spectrophotometric analysis relative to control
Leishmania donovani [25] = assay: Antileishmanial activity against amastigote form of Leishmania donovani DD8 infected in mouse J774A1 cells at 10 uM after 48 hrs by ethidium bromide/acridine orange staining-based fluorescence microscopic analysis; format: functional, organism-based; settings: J774.A1

Trypanothione reductase (Leishmania donovani), sequence (P39050 whole entry): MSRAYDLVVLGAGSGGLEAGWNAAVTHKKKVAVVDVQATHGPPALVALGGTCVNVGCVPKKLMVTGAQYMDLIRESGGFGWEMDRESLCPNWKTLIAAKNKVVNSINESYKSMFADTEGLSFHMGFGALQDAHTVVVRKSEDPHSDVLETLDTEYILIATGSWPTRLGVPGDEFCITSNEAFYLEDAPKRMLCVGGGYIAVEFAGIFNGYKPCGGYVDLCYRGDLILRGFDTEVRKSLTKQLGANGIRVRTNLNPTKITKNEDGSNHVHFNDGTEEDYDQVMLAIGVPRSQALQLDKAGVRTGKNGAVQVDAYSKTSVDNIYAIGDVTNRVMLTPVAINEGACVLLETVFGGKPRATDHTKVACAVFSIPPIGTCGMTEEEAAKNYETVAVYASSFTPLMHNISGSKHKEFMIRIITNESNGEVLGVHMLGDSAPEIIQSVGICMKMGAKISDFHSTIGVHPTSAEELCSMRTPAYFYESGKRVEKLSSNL

inhibition [3] [%]	inhibition [6] [%]	inhibition [7] [%]	inhibition [14] [%]	inhibition [17] [%]	inhibition [18] [%]	Compound	Activity (Leishmania donovani [1]) [%]	Activity (Leishmania donovani [2]) [%]	IC50 (Leishmania donovani [4]) [µM]	Activity (Leishmania donovani [5])	Activity (J774.A1)	IC50 (Leishmania donovani [8]) [µM]	Activity (Leishmania donovani [9])	Activity (Leishmania donovani [10]) [%]	Activity (Leishmania donovani [11])	viability at 48 h, 4 µM [12] [%]	Activity (Leishmania donovani [13])	Activity (Leishmania donovani [15])	Activity (Leishmania donovani [16])	Activity (Leishmania donovani [19]) [%]	further results
60.1	92.5	33.8	65.8	97.9	73.4	COC(=O)C1=CO[C@@H](O[C@@H]2O[C@H](CO)[C@@H](O)[C@H](O)[C@H]2O)[C@@H]2[C@@H](C)[C@@H](OC(=O)/C=C/c3ccc(OC)cc3)[C@@H](O)[C@H]12 [ARBORTRISTOSIDE A]	61.24	26.3	7.26	Active	Non-toxic	3.26	Active	2.13	Active	95.5	Active	Active	Active	10.33	Activity (Leishmania donovani [20]): Active; viability at 48 h, 100 µM [21]: 71.2%; inhibition [22]: 63.7%; Activity (Leishmania donovani [23]): Active; inhibition [24]: 41.9%; Activity (Leishmania donovani [25]): Active
63.6	92.6	41.9	67.9	96.9	77.5	COC(=O)C1=CO[C@@H](O[C@@H]2O[C@H](CO)[C@@H](O)[C@H](O)[C@H]2O)[C@@H]2[C@@H](CO)[C@@H](OC(=O)/C=C/c3ccc(O)c(O)c3)[C@@H](O)[C@H]12 [ARBORTRISTOSIDE B]	52.48	31.04	7.63	Active	Non-toxic	3.5	Active	2.96	Active	93.6	Active	Active	Active	13.52	Activity (Leishmania donovani [20]): Active; viability at 48 h, 100 µM [21]: 54.8%; inhibition [22]: 67.9%; Activity (Leishmania donovani [23]): Active; inhibition [24]: 46.9%; Activity (Leishmania donovani [25]): Active
62.7	95.3	46.9	67.8	97.7	82.8	COC(=O)C1=CO[C@@H](O[C@@H]2O[C@H](CO)[C@@H](O)[C@H](O)[C@H]2O)[C@@H]2[C@@H](C)[C@@H](OC(=O)/C=C/c3ccc(O)cc3)[C@@H](O)[C@H]12 [ARBORTRISTOSIDE C]	50.9	36.59	9	Active	Non-toxic	5.02	Active	2.51	Active	89.6	Active	Active	Active	10	Activity (Leishmania donovani [20]): Active; viability at 48 h, 100 µM [21]: 48.6%; inhibition [22]: 78.9%; Activity (Leishmania donovani [23]): Active; inhibition [24]: 51.7%; Activity (Leishmania donovani [25]): Active
